Measured values: patent US9999656B2, “Treatment of short bowel syndrome patients with colon-in-continuity” (Shire-NPS Pharmaceuticals, Inc., priority 2004, dated 2018)

Legend:
[1] = system: intestinal mucosa of SBS patients; assay: Morphological analysis of intestinal biopsies (villus height, crypt depth, mitotic index); assay type: in vivo, human
Protocol: Endoscopic examinations were performed in each subject at the completion of baseline, treatment and follow-up phases. All tissue samples for measurement of villus height and crypt depth were prepared and analyzed in a blinded fashion by the same pathologist. Villus height and crypt depth were measured using light microscopy (eyepiece micrometer) as the mean of ten well-oriented villi and crypts. The number of mitotic figures per 100 crypt epithelial cells was calculated.

[2] = system: patients with short bowel syndrome (SBS); assay: Safety monitoring (adverse events, laboratory, vital signs, ECGs, antibodies)
Text: During each inpatient period, patients underwent 72-hour nutrient balance and D-Xylose absorption studies, and a proximal or distal endoscopy to ascertain the condition of the intestinal mucosa and obtain biopsy samples. In jejunostomy patients, biopsies were obtained through the jejunostomy stoma or by upper gastrointestinal endoscopy. In patients with colon-in-continuity, colo-rectal biopsies were obtained. Teduglutide treatment began on Day 1 (immediately after the baseline period) and continued once-daily for 21 days. […] Patients were monitored for safety (adverse events, physical exams, vital signs, ECGs, laboratory results, and injection site examinations) during the inpatient periods and during outpatient visits on days 7 and 14.

[3] = jejunum / small intestine biopsies, Group 2 end-jejunostomy

## CC[C@H](C)[C@H](NC(=O)[C@H](Cc1ccccc1)NC(=O)[C@H](CC(=O)O)NC(=O)[C@H](CCCNC(=N)N)NC(=O)[C@H](C)NC(=O)[C@H](C)NC(=O)[C@H](CC(C)C)NC(=O)[C@H](CC(N)=O)NC(=O)[C@H](CC(=O)O)NC(=O)[C@H](CC(C)C)NC(=O)[C@@H](NC(=O)[C@@H](NC(=O)[C@H](CC(N)=O)NC(=O)[C@H](CCSC)NC(=O)[C@H](CCC(=O)O)NC(=O)[C@H](CC(=O)O)NC(=O)[C@H](CO)NC(=O)[C@H](Cc1ccccc1)NC(=O)[C@H](CO)NC(=O)CNC(=O)[C@H](CC(=O)O)NC(=O)CNC(=O)[C@@H](N)Cc1c[nH]cn1)[C@@H](C)O)[C@@H](C)CC)C(=O)N[C@@H](CC(N)=O)C(=O)N[C@@H](Cc1c[nH]c2ccccc12)C(=O)N[C@@H](CC(C)C)C(=O)N[C@H](C(=O)N[C@@H](CCC(N)=O)C(=O)N[C@H](C(=O)N[C@@H](CCCCN)C(=O)N[C@H](C(=O)N[C@H](C(=O)N[C@@H](CC(=O)O)C(=O)O)[C@@H](C)O)[C@@H](C)CC)[C@@H](C)O)[C@@H](C)CC [teduglutide, [Gly2]hGLP-2]
[1]; Group 3 colon-in-continuity
  sets of colonic biopsies with increased crypt depth: four of five
[1]; colonic biopsies, Group 3 colon-in-continuity, not significant (p=0.170)
  increase in mitotic index (colonic biopsies): 76±112%
[1]; colonic biopsies, Group 3 colon-in-continuity, not significant (p=0.330)
  mean increase in colonic crypt depth: 13±22%
[1]; [3]
  increase in crypt depth: 22±18%
  increase in mitotic index: 115±108%
  increase in villus height: 38±45%
[1]; of the 8 Group 2 patients who were biopsied
  number of patients with significant histological changes in the jejunum: 7
[2]; SBS patients, 21 days dosing
  antibodies to teduglutide: No antibodies to teduglutide were detected
[2]; all patients
  deaths and withdrawals due to adverse events: no deaths and no withdrawals due to adverse events
[2]; in vivo
  injection site reactions: Three patients had minor injection site reactions
  laboratory values: No clinically significant abnormal laboratory values
  most common AEs: edema of the lower limbs, and localized swelling of the jejunostomy nipple
  relation of serious AEs (catheter-related infection or complication, two patients) to drug: None of these were judged to be related to teduglutide
  vital signs or ECGs: No safety concerns were raised
